Data taken from patent US6837977B1, “Capillary electrophoresis method for screening for affinity ligands using a detectable competitive ligand” (Cetek Corporation, priority 1999, dated 2005).

Legend:
thrombin [1] = molecular target: T1, thrombin (Homo sapiens, UniProt P00734); conditions: binding to thrombin; stated for known ligands; cited from earlier work
thrombin [2] = molecular target: T1, thrombin; test: competitive-binding capillary electrophoresis screening with fluorescently labeled competitive ligand (FCL); conditions: for FCL/TG complex peak: FIG. 1
Protocol: Also prepared is 100 nM of a fluorescently labeled, tight-binding competitive ligand, single-stranded (ss) DNA oligonucleotide 5′-fluorescein-GGTTGGTGTGGTTGG-3′ (Kd=3×10^−9 M; hereinafter “FCL”). The mixture of target and candidate ligand (TG/LG) is first injected into the CE instrument for about ten (10) seconds to give a first plug, followed by a 10-second injection of FCL as the second plug.
Voltage of about 20 kV is applied to initiate electrophoresis, and the unbound competitive ligand (FCL) and bound FCL/TG complex peaks are monitored during CE by means of laser-induced fluorescence and a fluorescence detector positioned at a detection point along the capillary.
Here the thrombin target (TG) is incubated, prior to CE, for five minutes with samples containing hirugen and hirulog-1 at different concentrations. Each of these target/sample mixtures is subjected to a CE screening run, as follows. A plug of target/sample mixture is pressure-injected into the CE instrument for 10 seconds to give a first-injected plug. A second injection plug of 100 nM FCL is then injected for 10 seconds, and then voltage of about 20 kV is applied to start electrophoresis. The CE migration of the FCL and FCL/TG complex are monitored by way of laser-induced fluorescence. Again, the FCL has a higher electrophoretic mobility than the TG, so that the unbound FCL peak appears before that of the FCL/TG complex (see FIG. 2).

Substance	Kd (thrombin [1]) [nM]	FCL/TG complex peak (thrombin [2]; 50 nM hirulog-1 in sample, equivalent to 50 nM thrombin, 100 nM FCL)	FCL/TG peak (thrombin [2]; hirulog-1 in samples also containing hirugen, 100 nM FCL, FIG. 2)	FCL/TG complex peak (thrombin [2]; increasing concentrations of hirulog-1, 50 nM thrombin pre-incubated 5 min, 100 nM FCL, 20 kV)	molar excess of weak-binding hirugen at which the hirulog-1 signal is detectable (thrombin [2]; samples containing hirugen and hirulog-1, FIG. 2)	change in competitive ligand's (FCL's) CE profile (thrombin [2]; pre-incubation of thrombin with 10,000 nM hirugen, 100 nM FCL, FIG. 2)
D-Phe-Pro-Arg-Pro-(Gly)4-Asn-Gly-Asp-Phe-Glu-Glu-Ile-Pro-Glu-Glu-Tyr-Leu [hirulog-1]	~2	complete disappearance	decrease	reduced	up to 1,000 fold	–
5′-fluorescein-GGTTGGTGTGGTTGG-3′ [FCL]	3	–	–	–	–	–
Gly-54-Leu-65 carboxyterminal dodecapeptide of hirudin with sulfated tyrosine [hirugen]	150	–	–	–	–	no difference
